Data as given in article PMC7894522, “Structure Based Design of Bicyclic Peptide Inhibitors of RbAp48” (Angewandte Chemie (International Ed. in English), 2020).
Starred links: 1 amine or outer side, 2 acyl side, 3 side chain; linkers in the order of their positions; H or OH if unused. Positions of bridges follow the written chain, without caps; N, C: chain ends. Residues, ends and D or L forms follow the SMILES beside them. Pyridine(2,6-diCH2) = c1cc(C[*:1])nc(C[*:2])c1; TBMB = c1c(C[*:1])cc(C[*:3])cc1C[*:2]; mXylylene = c1cc(C[*:1])cc(C[*:2])c1; pXylylene = c1cc(C[*:2])ccc1C[*:1]

target: RbAp48 (Homo sapiens, UniProt Q09028); assay: Competitive fluorescence polarization (FP) assay using complex of peptide 1 and RbAp48; format: binding; design: Full length RbAp48 was cloned; His tag followed by 3C cleavage site (N, cleaved yes); made in house; host or cells: Sf9 insect cells; settings: Supplemental Table 2; competitive FP, tracer 1 nM, RbAp48 15 nM, pH 7.5, 30 min room temperature; read-out: IC50
Procedure: The binding affinity of our library of synthetic cyclic peptides was evaluated by a competitive fluorescence polarization (FP) assay using a complex formed by peptide 1 and RbAp48. To reduce the length of the peptide it was truncated to the amino acids which seemed most critical according to the crystal structure (residues 676–689, pdb:4pbz). […] We chose to use a cyclization approach to regain affinity, that is, not to induce more interactions but through minimizing the entropic penalty upon binding by reducing the flexibility of the peptide. To this end two amino acids were chosen which are facing one another in the structure (see Figure 1 B/D/E). Two peptides were designed where glutamic acid was used in position 676 (4) or position 680 (5) and lysine in position 688 for both peptides (see Table 1). The macrocycles were formed by connecting the side chains via an amide bond (see Figure 1 D/E). Peptide synthesis was performed on Rink‐amide resin using the Fmoc‐strategy incorporating Fmoc‐L‐Glu(All)‐OH and Fmoc‐L‐Lys(Alloc)‐OH at the sites for cyclization. After completion of the linear synthesis the allyl protecting groups were removed using Pd^0 catalysis and the amide link was formed by using PyBOP. […] Therefore, a range of peptides was synthesized which were cyclized using the same amino acid positions but via a cysteine alkylation strategy (see Figure 1 D/E and Table 1). In this method the residues used for cyclization are replaced with cysteine and benzylic dibromides act as crosslinkers on the unprotected peptides. ^[11] Previous research has shown that such linkers can effectively stabilize cyclic peptides and yield high affinity ligands for protein–protein interaction inhibition. ^[12] Such a linker introduces a xylene group in close vicinity of the hydrophobic patch potentially reconstituting the lost key hydrophobic interactions. To explore a variety of macrocycle conformations we used either ortho‐, meta‐ or para‐substituted dibromides to exchange the linker in both 4 and 5 (see Figure 1 D/E and Table 1). ^[13]
Protein expression and purification
RbAp48 was expressed and purified by the Dortmund Protein Facility. Full length RbAp48 was cloned into a pOPIN vector ligating it to an N-terminal His tag followed by a 3C cleavage site. The protein was expressed from Sf9 cells for 48 h. Cells were harvested and lysed and the protein was purified by loading onto a HisTrap FF crude 5 ml column followed by on-column cleavage using Precission protease. The cleaved protein was then further purified using a HiLoad 26/60 Superdex 200 column.
Fluorescence polarization assay
Fluorescence polarization assays were performed in 384 wells plates in 80 µl volumes. The assay buffer contains 20 mM Tris-HCl, 150 mM NaCl, 0.01% Tween-20 at pH 7.5. The concentration of the fluorescently labelled peptides was 1 nM plates were incubated at room temperature for 30 min before they were read on a Tecan Spark plate reader (λex = 485 nm, λem = 535 nm).
For competitive assays the same conditions were used with a tracer concentration of 1 nM was used and a protein concentration of 15 nM .

Sequence of RbAp48 (Q09028 whole entry, the tested form may be a part): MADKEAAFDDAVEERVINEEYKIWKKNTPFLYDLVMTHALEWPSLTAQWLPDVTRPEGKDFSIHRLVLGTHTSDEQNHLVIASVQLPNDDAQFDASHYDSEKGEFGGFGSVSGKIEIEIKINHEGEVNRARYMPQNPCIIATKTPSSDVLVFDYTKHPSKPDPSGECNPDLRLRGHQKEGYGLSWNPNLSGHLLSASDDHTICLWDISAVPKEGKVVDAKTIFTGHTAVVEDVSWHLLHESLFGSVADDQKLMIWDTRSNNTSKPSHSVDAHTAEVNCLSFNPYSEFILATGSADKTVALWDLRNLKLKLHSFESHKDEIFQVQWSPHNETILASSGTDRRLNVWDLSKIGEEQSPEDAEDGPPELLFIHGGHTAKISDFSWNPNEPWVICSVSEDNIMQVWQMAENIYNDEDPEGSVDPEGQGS

IC50 [nM]	Structure (SMILES)
7480 ± 3020	CC(=O)N[C@H]1CSCc2cc3cc(c2)CSC[C@@H](C(=O)N[C@@H](CC(N)=O)C(N)=O)NC(=O)[C@@H]2CCCN2C(=O)[C@H](CC(C)C)NC(=O)[C@H](Cc2ccc(O)cc2)NC(=O)[C@@H]2CCCN2C(=O)[C@H](Cc2c[nH]cn2)NC(=O)[C@H](CCCNC(=N)N)NC(=O)[C@H](C)NC(=O)[C@H](CSC3)NC(=O)[C@H](Cc2c[nH]cn2)NC(=O)[C@H](Cc2c[nH]c3ccccc23)NC(=O)[C@@H]2CCCN2C1=O [Peptide 35] (Ac-CPWHCARHPYLPCN-NH2; linker 1-5-13 via TBMB)
22.3 ± 0.03	CC(=O)N[C@H]1CSCc2cccc(c2)CSC[C@@H](C(=O)N[C@@H](C)C(N)=O)NC(=O)[C@@H]2CCCN2C(=O)[C@H](CCCCN)NC(=O)[C@H](Cc2ccc(O)cc2)NC(=O)[C@@H]2CCCN2C(=O)[C@H](CCCNC(=N)N)NC(=O)[C@H](CCCNC(=N)N)NC(=O)[C@H](C)NC(=O)[C@H](C)NC(=O)[C@H](CCCNC(=N)N)NC(=O)[C@H](CCCCN)NC(=O)[C@@H]2CCCN2C1=O [Peptide 20] (Ac-CPKRAARRPYKPCA-NH2; linker 1-13 via mXylylene)
> 10000	CC(=O)N[C@H]1CSCc2cccc(c2)CSC[C@@H](C(=O)N[C@@H](CC(N)=O)C(N)=O)NC(=O)[C@@H]2CCCN2C(=O)[C@H](CC(C)C)NC(=O)[C@H](Cc2ccc(O)cc2)NC(=O)[C@@H]2CCCN2C(=O)[C@H](Cc2c[nH]cn2)NC(=O)[C@H](CCCNC(=N)N)NC(=O)[C@H](C)NC(=O)[C@H](C)NC(=O)[C@H](Cc2c[nH]cn2)NC(=O)[C@H](Cc2c[nH]c3ccccc23)NC(=O)[C@@H]2CCCN2C(=O)[C@H](CCCNC(=N)N)NC1=O [Peptide 16] (Ac-CRPWHAARHPYLPCN-NH2; linker 1-14 via mXylylene)
> 10000	CC[C@H](C)[C@H](NC(=O)[C@@H]1CCCN1C(=O)[C@H](CC(C)C)NC(=O)[C@H](Cc1ccc(O)cc1)NC(=O)[C@@H]1CCCN1C(=O)[C@H](Cc1c[nH]cn1)NC(=O)[C@H](CCCNC(=N)N)NC(=O)[C@H](C)NC(=O)[C@H](C)NC(=O)[C@H](Cc1c[nH]cn1)NC(=O)[C@H](Cc1c[nH]c2ccccc12)NC(=O)[C@@H]1CCCN1C(=O)[C@H](CCCNC(=N)N)NC(C)=O)C(=O)N[C@@H](CC(N)=O)C(N)=O [Peptide 15] (Ac-RPWHAARHPYLPIN-NH2)
40.4 ± 1.5	CC(=O)N[C@H]1CSCc2cc(C)cc(c2)CSC[C@@H](C(=O)N[C@@H](C)C(N)=O)NC(=O)[C@@H]2CCCN2C(=O)[C@H](CCCCN)NC(=O)[C@H](Cc2ccc(O)cc2)NC(=O)[C@@H]2CCCN2C(=O)[C@H](CCCNC(=N)N)NC(=O)[C@H](CCCNC(=N)N)NC(=O)[C@H](C)NC(=O)[C@H](C)NC(=O)[C@H](CCCNC(=N)N)NC(=O)[C@H](CCCCN)NC(=O)[C@H]([C@@H](C)O)NC1=O [Peptide 31] (Ac-CTKRAARRPYKPCA-NH2; linker 1-13 via TBMB (inferred))
303 ± 85.9	CC(=O)N[C@H]1CSCc2ccc(cc2)CSC[C@@H](C(=O)N[C@@H](C)C(N)=O)NC(=O)[C@@H]2CCCN2C(=O)[C@H](CCCCN)NC(=O)[C@H](Cc2ccc(O)cc2)NC(=O)[C@@H]2CCCN2C(=O)[C@H](CCCNC(=N)N)NC(=O)[C@H](CCCNC(=N)N)NC(=O)[C@H](C)NC(=O)[C@H](C)NC(=O)[C@H](Cc2c[nH]cn2)NC(=O)[C@H](CCCCN)NC(=O)[C@H]([C@@H](C)O)NC1=O [Peptide 25] (Ac-CTKHAARRPYKPCA-NH2; linker 1-13 via pXylylene)
25 ± 7.3	CC(=O)N[C@H]1CSCc2ccc(cc2)CSC[C@@H](C(=O)N[C@@H](C)C(N)=O)NC(=O)[C@@H]2CCCN2C(=O)[C@H](CCCCN)NC(=O)[C@H](Cc2ccc(O)cc2)NC(=O)[C@@H]2CCCN2C(=O)[C@H](CCCNC(=N)N)NC(=O)[C@H](CCCNC(=N)N)NC(=O)[C@H](C)NC(=O)[C@H](C)NC(=O)[C@H](CCCNC(=N)N)NC(=O)[C@H](CCCCN)NC(=O)[C@@H]2CCCN2C1=O [Peptide 21] (Ac-CPKRAARRPYKPCA-NH2; linker 1-13 via pXylylene)

same assay, conditions: Table 1; competitive FP, tracer peptide 1 1 nM, RbAp48 15 nM, 20 mM Tris-HCl, 150 mM NaCl, 0.01% Tween-20, pH 7.5, 30 min room temperature; lower limit set by 15 nM protein; read-out: IC50

Structure (SMILES)	IC50 [nM]
CC(=O)N[C@H]1CSCc2cc3cc(c2)CSC[C@H](NC(=O)[C@H](CCCNC(=N)N)NC(=O)[C@H](CCCCN)NC(=O)[C@H]([C@@H](C)O)NC1=O)C(=O)N[C@@H](C)C(=O)N[C@@H](CCCNC(=N)N)C(=O)N[C@@H](CCCNC(=N)N)C(=O)N1CCC[C@H]1C(=O)N[C@@H](Cc1ccc(O)cc1)C(=O)N[C@@H](CCCCN)C(=O)N1CCC[C@H]1C(=O)N[C@H](C(N)=O)CSC3 [Peptide 46] (Ac-CTKRCARRPYKPC-NH2; linker 1-5-13 via TBMB)	20.5 ± 1.4
CC(=O)N[C@H]1CCC(=O)NCCCC[C@@H](C(=O)N[C@@H](C)C(N)=O)NC(=O)[C@@H]2CCCN2C(=O)[C@H](CCCCN)NC(=O)[C@H](Cc2ccc(O)cc2)NC(=O)[C@@H]2CCCN2C(=O)[C@H](CCCNC(=N)N)NC(=O)[C@H](CCCNC(=N)N)NC(=O)[C@H](C)NC(=O)[C@H](C)NC(=O)[C@H](CCCNC(=N)N)NC(=O)[C@H](CCCCN)NC(=O)[C@H]([C@@H](C)O)NC1=O [Peptide 4] (Ac-ETKRAARRPYKPKA-NH2; lactam 1-13)	47.7 ± 12.5
CC(=O)N[C@H]1CSCc2cc3cc(c2)CSC[C@@H](C(=O)N[C@@H](C)C(N)=O)NC(=O)[C@@H]2CCCN2C(=O)[C@H](CCCCN)NC(=O)[C@H](Cc2ccc(O)cc2)NC(=O)[C@H](C)NC(=O)[C@H](CCCNC(=N)N)NC(=O)[C@H](CCCNC(=N)N)NC(=O)[C@H](C)NC(=O)[C@H](CSC3)NC(=O)[C@H](CCCNC(=N)N)NC(=O)[C@H](CCCCN)NC(=O)[C@H]([C@@H](C)O)NC1=O [Peptide 42] (Ac-CTKRCARRAYKPCA-NH2; linker 1-5-13 via TBMB)	131 ± 15.3

The next lines start with the values.

IC50 [nM]	Structure (SMILES)
2340 ± 363	CC(=O)N[C@@H](CCC(=O)O)C(=O)N[C@H](C(=O)N[C@@H](CCCCN)C(=O)N[C@@H](CCCNC(=N)N)C(=O)N[C@H]1CSCc2ccc(cc2)CSC[C@@H](C(=O)N[C@@H](C)C(N)=O)NC(=O)[C@@H]2CCCN2C(=O)[C@H](CCCCN)NC(=O)[C@H](Cc2ccc(O)cc2)NC(=O)[C@@H]2CCCN2C(=O)[C@H](CCCNC(=N)N)NC(=O)[C@H](CCCNC(=N)N)NC(=O)[C@H](C)NC1=O)[C@@H](C)O [Peptide 12] (Ac-ETKRCARRPYKPCA-NH2; linker 5-13 via pXylylene)
147 ± 10.7	CC(=O)N[C@@H](CCC(=O)O)C(=O)N[C@H](C(=O)N[C@@H](CCCCN)C(=O)N[C@@H](CCCNC(=N)N)C(=O)N[C@H]1CSCc2cccc(n2)CSC[C@@H](C(=O)N[C@@H](C)C(N)=O)NC(=O)[C@@H]2CCCN2C(=O)[C@H](CCCCN)NC(=O)[C@H](Cc2ccc(O)cc2)NC(=O)[C@@H]2CCCN2C(=O)[C@H](CCCNC(=N)N)NC(=O)[C@H](CCCNC(=N)N)NC(=O)[C@H](C)NC1=O)[C@@H](C)O [Peptide 13] (Ac-ETKRCARRPYKPCA-NH2; linker 5-13 via Pyridine(2,6-diCH2))
34.9 ± 14	CC(=O)N[C@H]1CSCc2cccc(n2)CSC[C@@H](C(=O)N[C@@H](C)C(N)=O)NC(=O)[C@@H]2CCCN2C(=O)[C@H](CCCCN)NC(=O)[C@H](Cc2ccc(O)cc2)NC(=O)[C@@H]2CCCN2C(=O)[C@H](CCCNC(=N)N)NC(=O)[C@H](CCCNC(=N)N)NC(=O)[C@H](C)NC(=O)[C@H](C)NC(=O)[C@H](CCCNC(=N)N)NC(=O)[C@H](CCCCN)NC(=O)[C@H]([C@@H](C)O)NC1=O [Peptide 9] (Ac-CTKRAARRPYKPCA-NH2; linker 1-13 via Pyridine(2,6-diCH2))

same assay, conditions: competitive FP assay

FP activity in words	Structure (SMILES)
IC50 values similar to those of 7 and 8	CC(=O)N[C@H]1CSCc2cccc(c2)CSC[C@@H](C(=O)N[C@@H](C)C(N)=O)NC(=O)[C@@H]2CCCN2C(=O)[C@H](CCCCN)NC(=O)[C@H](Cc2ccc(O)cc2)NC(=O)[C@@H]2CCCN2C(=O)[C@H](CCCNC(=N)N)NC(=O)[C@H](CCCNC(=N)N)NC(=O)[C@H](C)NC(=O)[C@H](C)NC(=O)[C@H](CCCNC(=N)N)NC(=O)[C@H](CCCCN)NC(=O)[C@@H]2CCCN2C1=O [Peptide 20] (Ac-CPKRAARRPYKPCA-NH2; linker 1-13 via mXylylene)
IC50 values similar to those of 7 and 8	CC(=O)N[C@H]1CSCc2ccc(cc2)CSC[C@@H](C(=O)N[C@@H](C)C(N)=O)NC(=O)[C@@H]2CCCN2C(=O)[C@H](CCCCN)NC(=O)[C@H](Cc2ccc(O)cc2)NC(=O)[C@@H]2CCCN2C(=O)[C@H](CCCNC(=N)N)NC(=O)[C@H](CCCNC(=N)N)NC(=O)[C@H](C)NC(=O)[C@H](C)NC(=O)[C@H](CCCNC(=N)N)NC(=O)[C@H](CCCCN)NC(=O)[C@@H]2CCCN2C1=O [Peptide 21] (Ac-CPKRAARRPYKPCA-NH2; linker 1-13 via pXylylene)
